From patent publication US20260256753A1, “USE OF AN OREXIN 2 RECEPTOR AGONIST FOR IMPROVING RESPIRATORY FUNCTION DURING SLEEP” (TAKEDA PHARMACEUTICAL COMPANY LIMITED, priority 2023, published 2026)

Key:
diaphragm = test: EMG recording of the diaphragm in anesthetized rats; assay type: in vivo, rat; details: 10 min after administration, versus vehicle, FIG. 4
Method: Rats were anaesthetized with isoflurane (induction: 2%, maintenance: 1.5%). Anesthetic depth was assessed by the reflex responses to paw pinches. The tail vein was cannulated for intravenous drug administration. Rats were laid on disposable body warmers to prevent decrease in body temperature. The diaphragm was exposed, then two needle electrodes were implanted into costal diaphragm to monitor diaphragm EMG. After 10 min of baseline recording, vehicle (0.1% [w/v] Polysorbate 80 and 20% [w/v] Captisol solution) or Compound C was administered intravenously, and then EMG was recorded for 10 min. EMG was amplified using Bio amp system (ML132, AD Instruments), high-pass filtered (10 Hz), digitized, and recorded using PowerLab software (AD Instruments), and then rectified and integrated with a time constant decay (100 ms) using LabChart software (AD Instruments). Threshold levels for bursts were set using LabChart software (AD Instruments). Bursts were then automatically detected, and burst frequency was measured. Mean values in burst frequency during 2 min before vehicle or Compound C administration were used as control values, and those during 10 min after vehicle or Compound C administration were used to calculate percent of control values.

OX2R = molecular target: T1, OX2R (Homo sapiens, UniProt O43614); details: OX2R-expressed recombinant cells; cited from earlier work
T1 sequence (O43614 1-444): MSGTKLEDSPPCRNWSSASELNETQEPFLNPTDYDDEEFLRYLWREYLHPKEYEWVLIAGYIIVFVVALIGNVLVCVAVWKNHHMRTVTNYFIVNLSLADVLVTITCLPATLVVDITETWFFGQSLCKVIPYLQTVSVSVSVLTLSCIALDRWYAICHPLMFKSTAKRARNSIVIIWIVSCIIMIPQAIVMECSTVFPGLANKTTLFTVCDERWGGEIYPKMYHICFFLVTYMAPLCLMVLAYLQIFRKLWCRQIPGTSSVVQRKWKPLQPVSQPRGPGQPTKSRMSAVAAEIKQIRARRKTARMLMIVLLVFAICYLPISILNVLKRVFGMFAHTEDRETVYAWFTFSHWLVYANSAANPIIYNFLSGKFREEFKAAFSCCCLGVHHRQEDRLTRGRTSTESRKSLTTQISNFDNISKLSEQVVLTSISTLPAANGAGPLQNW

[1] = tested on: patients with obstructive sleep apnea; test: Phase 1b crossover study in obstructive sleep apnea: upper airway collapsibility index (UACI) during wakefulness; assay type: in vivo, human
Method: A phase 1b, randomized, double-blind, placebo-controlled, 3-period crossover study was conducted to evaluate the safety, tolerability, pharmacodynamic, and pharmacokinetic effects of overnight intravenous COMPOUND A in patients with obstructive sleep apnea (OSA). This study was planned to further evaluate COMPOUND A intravenous administration (IV) in adults with OSA, hypothesizing that nonwake-promoting exposures of COMPOUND A would increase genioglossal muscle tone and increase airway patency via the increasing activity of hypoglossal motoneurons. The main goal of this study was to evaluate the mechanistic potential of OX2R agonism for treatment of OSA using COMPOUND A IV infusion to determine appropriate use in future trials with an oral OX2R agonist.
Eligible participants were randomly assigned (in a double-blinded manner) to 1 of 6 treatment sequences. In each treatment period, participants underwent 3 UACI assessments, a 10-minute evaluation that tested the key biological mechanism that causes OSA (as described by Osman, A. M., et al., 2019, Sleep, 42 (7), 1-10), followed by an overnight polysomnography (PSG). After the first baseline UACI assessment (U1), an IV infusion regimen of COMPOUND A or placebo was administered over approximately 10 hours to achieve specific plasma concentrations to evaluate the effect of COMPOUND A on the UACI and PSG metrics. […]

SMILES | burst frequency of the diaphragm (diaphragm; 1 mg/kg intravenous) | burst frequency of the diaphragm (diaphragm; 3 mg/kg intravenous) | calcium mobilization (OX2R) | upper airway collapsibility as measured by UACI [1]
CC(C)(O)C(=O)N1CC(F)(F)[C@H](NS(C)(=O)=O)[C@@H]1Cc1cccc(-c2cc(F)cc(F)c2)c1F [Compound C, N-{(2S,3R)-4,4-difluoro-1-(2-hydroxy-2-methylpropanoyl)-2-[(2,3′,5′-trifluoro[1,1′-biphenyl]-3-yl)methyl]pyrrolidin-3-yl}methanesulfonamide] | significantly increased burst frequency | significantly increased burst frequency | – | –
COC(=O)N1CCC[C@H](NS(C)(=O)=O)[C@@H]1CO[C@H]1CC[C@@H](c2ccccc2)CC1 (relative stereo) [Compound A, methyl(2R,3S)-3-((methylsulfonyl)amino)-2-(((cis-4-phenylcyclohexyl)oxy)methyl) piperidine-1-carboxylate] | – | – | increase calcium mobilization | no consistent improvement
